Source: patent US20200291018A1, “TAM KINASE INHIBITORS” (SYROS PHARMACEUTICALS, INC., priority 2017, published 2020)

Legend:
[1] = target: T1, AXL (Homo sapiens, UniProt P30530); assay: TR-FRET kinase activity assay, AXL; assay type: biochemical; settings: ATP at Km, 60 minutes
T1 sequence (P30530 26-894): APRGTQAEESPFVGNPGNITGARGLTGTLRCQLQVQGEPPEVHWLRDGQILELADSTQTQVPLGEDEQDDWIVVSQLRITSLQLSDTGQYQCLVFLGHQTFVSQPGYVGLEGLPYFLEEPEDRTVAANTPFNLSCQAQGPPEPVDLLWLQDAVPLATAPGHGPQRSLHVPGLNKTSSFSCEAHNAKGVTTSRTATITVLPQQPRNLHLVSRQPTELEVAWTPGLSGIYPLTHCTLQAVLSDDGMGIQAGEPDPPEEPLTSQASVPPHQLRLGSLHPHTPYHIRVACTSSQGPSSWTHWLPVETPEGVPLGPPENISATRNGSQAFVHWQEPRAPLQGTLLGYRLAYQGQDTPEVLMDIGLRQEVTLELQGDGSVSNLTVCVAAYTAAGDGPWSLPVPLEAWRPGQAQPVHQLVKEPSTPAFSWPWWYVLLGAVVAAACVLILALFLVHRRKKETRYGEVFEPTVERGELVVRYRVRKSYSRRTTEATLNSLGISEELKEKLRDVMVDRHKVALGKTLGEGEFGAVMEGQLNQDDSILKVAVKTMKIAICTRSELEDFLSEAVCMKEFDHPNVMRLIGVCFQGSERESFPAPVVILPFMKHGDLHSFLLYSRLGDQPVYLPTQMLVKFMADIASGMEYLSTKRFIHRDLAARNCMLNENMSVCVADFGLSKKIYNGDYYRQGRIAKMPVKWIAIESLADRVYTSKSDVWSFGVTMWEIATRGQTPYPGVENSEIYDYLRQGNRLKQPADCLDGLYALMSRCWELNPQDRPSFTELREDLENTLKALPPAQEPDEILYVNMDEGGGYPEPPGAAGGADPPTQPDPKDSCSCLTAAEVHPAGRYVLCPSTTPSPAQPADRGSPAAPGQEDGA
Procedure, shortened: (§1)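 Buffer 50 mM HEPES pH 7.5/10 mM MgCl2/1 mM EGTA/0.01% Brij 35/1 mM DTT, RT. Km ATP per kinase, labeled peptide, 60 min; 12.5 mM EDTA stop; Eu-Ab 30 min dark; TR-FRET → IC50.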

[2] = target: T2, FLT3 (Homo sapiens, UniProt P36888); assay: TR-FRET kinase activity assay, FLT3; assay type: biochemical; settings: ATP at Km, 60 minutes
T2 sequence (P36888 27-993): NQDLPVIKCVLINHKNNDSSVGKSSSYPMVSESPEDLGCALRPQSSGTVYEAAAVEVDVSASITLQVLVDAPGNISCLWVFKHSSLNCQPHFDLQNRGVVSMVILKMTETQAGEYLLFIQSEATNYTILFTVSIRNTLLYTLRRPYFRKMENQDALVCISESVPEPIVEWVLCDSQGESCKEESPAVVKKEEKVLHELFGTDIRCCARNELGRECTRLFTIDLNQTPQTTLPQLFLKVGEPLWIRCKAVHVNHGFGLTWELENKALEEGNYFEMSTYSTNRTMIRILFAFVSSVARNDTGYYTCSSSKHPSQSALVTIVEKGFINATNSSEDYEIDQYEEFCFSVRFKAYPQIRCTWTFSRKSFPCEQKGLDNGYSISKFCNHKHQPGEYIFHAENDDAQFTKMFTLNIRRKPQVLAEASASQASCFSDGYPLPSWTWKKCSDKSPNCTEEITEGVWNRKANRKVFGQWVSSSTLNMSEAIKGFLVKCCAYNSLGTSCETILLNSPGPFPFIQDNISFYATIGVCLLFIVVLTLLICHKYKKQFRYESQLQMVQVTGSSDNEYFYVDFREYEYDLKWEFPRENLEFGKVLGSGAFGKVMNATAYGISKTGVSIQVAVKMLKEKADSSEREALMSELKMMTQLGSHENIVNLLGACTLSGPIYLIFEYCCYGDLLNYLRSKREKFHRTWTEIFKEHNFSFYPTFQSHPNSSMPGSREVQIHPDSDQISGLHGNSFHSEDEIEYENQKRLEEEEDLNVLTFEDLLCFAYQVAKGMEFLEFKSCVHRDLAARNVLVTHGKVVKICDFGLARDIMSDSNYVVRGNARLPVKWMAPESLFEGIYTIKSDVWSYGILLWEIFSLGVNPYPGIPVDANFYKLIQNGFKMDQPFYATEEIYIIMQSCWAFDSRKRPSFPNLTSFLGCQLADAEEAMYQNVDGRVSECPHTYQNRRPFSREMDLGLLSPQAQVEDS
Procedure, shortened: as §1

Row | SMILES | IC50 [1] | IC50 [2]
1 | C[C@@H](CC(F)(F)F)Nc1ncc2c(OC3CCN(S(C)(=O)=O)CC3)ncc([C@H]3CC[C@H](O)CC3)c2n1 [Compound 389] | 100 to 1000 nM | 1000 to 10000 nM
2 | COCCN1C(C)(C)CC(Oc2ncc([C@H]3CC[C@H](O)CC3)c3nc(N[C@@H]4CCOC4)ncc23)CC1(C)C [Compound 390] | 100 to 1000 nM | 1000 to 10000 nM
3 | CCN1C(C)(C)CC(Oc2ncc([C@H]3CC[C@H](O)CC3)c3nc(N[C@@H](C)CC(F)(F)F)ncc23)CC1(C)C [Compound 391] | ≤ 100 nM | 100 to 1000 nM
4 | O[C@H]1CC[C@H](c2cnc(OC3CCOCC3)c3cnc(Nc4ccc(-c5nn[nH]n5)cc4)nc32)CC1 [Compound 392] | ≤ 100 nM | 100 to 1000 nM
5 | COC[C@H](C)Nc1ncc2c(O[C@H]3C[C@@H](C(=O)N4CCN(C)CC4)C3)ncc([C@H]3CC[C@H](O)CC3)c2n1 [Compound 393] | 100 to 1000 nM | 1000 to 10000 nM
6 | C[C@@H](Nc1ncc2c(OC3CCOCC3)ncc([C@H]3CC[C@H](O)CC3)c2n1)C(F)F [Compound 394] | 100 to 1000 nM | 1000 to 10000 nM
7 | COC[C@H](C)Nc1ncc2c(OC3CCOCC3)ncc(-c3ccc(F)cc3)c2n1 [Compound 395] | 1000 to 10000 nM | 1000 to 10000 nM
8 | COC[C@H](C)Nc1ncc2c(OC3CCOCC3)ncc(-c3ccc(C#N)cc3)c2n1 [Compound 396] | 1000 to 10000 nM | 1000 to 10000 nM
9 | O=C(O)c1ccc(Nc2ncc3c(OC4CCOCC4)ncc([C@H]4CC[C@H](O)CC4)c3n2)cc1 [Compound 397] | ≤ 100 nM | ≤ 100 nM
10 | CNC(=O)c1ccc(Nc2ncc3c(OC4CCOCC4)ncc([C@H]4CC[C@H](O)CC4)c3n2)cc1 [Compound 398] | 100 to 1000 nM | 100 to 1000 nM
11 | NC(=O)c1ccc(Nc2ncc3c(OC4CCOCC4)ncc([C@H]4CC[C@H](O)CC4)c3n2)cc1 [Compound 399] | ≤ 100 nM | ≤ 100 nM
12 | COC[C@H](C)Nc1ncc2c(OC3CCOCC3)ncc(-c3ccc(S(C)(=O)=O)cc3)c2n1 [Compound 400] | 1000 to 10000 nM | 1000 to 10000 nM
13 | C[C@H](CF)Nc1ncc2c(OC3CCOCC3)ncc([C@H]3CC[C@H](O)CC3)c2n1 [Compound 401] | 100 to 1000 nM | 1000 to 10000 nM
14 | C[C@@H](CC(F)(F)F)Nc1ncc2c(O[C@H]3C[C@@H](CN4CCOCC4)C3)ncc([C@H]3CC[C@H](O)CC3)c2n1 [Compound 402] | ≤ 100 nM | 100 to 1000 nM
15 | COC[C@H](C)Nc1ncc2c(C(F)(F)F)ncc([C@H]3CC[C@H](O)CC3)c2n1 [Compound 403] | 1000 to 10000 nM | 1000 to 10000 nM
16 | CC1(Nc2ncc3c(OC4CCOCC4)ncc(-c4cccc(NS(C)(=O)=O)c4)c3n2)CC1 [Compound 404] | 100 to 1000 nM | 1000 to 10000 nM
17 | CC1(Nc2ncc3c(OC4CCOCC4)ncc(-c4cccc(S(=O)(=O)N5CCC5)c4)c3n2)CC1 [Compound 405] | 100 to 1000 nM | 1000 to 10000 nM
18 | C[C@H](CC(F)(F)F)Nc1ncc2c(O[C@H]3C[C@@H](O)C3)ncc([C@H]3CC[C@H](O)CC3)c2n1 [Compound 406] | 1000 to 10000 nM | 1000 to 10000 nM
19 | C[C@@H](COC(F)F)Nc1ncc2c(O[C@H]3C[C@@H](O)C3)ncc([C@H]3CC[C@H](O)CC3)c2n1 [Compound 407] | 100 to 1000 nM | 1000 to 10000 nM
20 | C[C@@H](CC(F)(F)F)Nc1ncc2c(O[C@H]3C[C@@H](N4CCOCC4)C3)ncc([C@H]3CC[C@H](O)CC3)c2n1 [Compound 408] | 100 to 1000 nM | 100 to 1000 nM

Row | SMILES | IC50 [1] | IC50 [2]
21 | C[C@@H](CC(F)(F)F)Nc1ncc2c(O[C@H]3C[C@@H](O)C3)ncc(-c3ccc(C4(C#N)CC4)cc3)c2n1 [Compound 409] | 1000 to 10000 nM | 100 to 1000 nM
22 | O=C(O)[C@H]1CC[C@H](Nc2ncc3c(OC4CCOCC4)ncc([C@H]4CC[C@H](O)CC4)c3n2)CC1 [Compound 410] | 1000 to 10000 nM | 1000 to 10000 nM
23 | C[C@H](Nc1ncc2c(O[C@H]3C[C@@H](O)C3)ncc([C@H]3CC[C@H](O)CC3)c2n1)C(F)F [Compound 411] | 100 to 1000 nM | 1000 to 10000 nM
24 | C[C@@H](CC(F)(F)F)Nc1ncc2c(O[C@@H]3C[C@H]4CC[C@@H](C3)N4C[C@H]3CCCO3)ncc([C@H]3CC[C@H](O)CC3)c2n1 [Compound 412] | ≤ 100 nM | ≤ 100 nM
25 | C[C@@H](CC(F)(F)F)Nc1ncc2c(O[C@@H]3C[C@H]4CC[C@@H](C3)N4[C@H]3CCOC3)ncc([C@H]3CC[C@H](O)CC3)c2n1 [Compound 413] | ≤ 100 nM | ≤ 100 nM
26 | C[C@@H](CC(F)(F)F)Nc1ncc2c(O[C@@H]3C[C@H]4CC[C@@H](C3)N4C[C@H]3CCOC3)ncc([C@H]3CC[C@H](O)CC3)c2n1 [Compound 414] | ≤ 100 nM | ≤ 100 nM
27 | C[C@@H](CC(F)(F)F)Nc1ncc2c(O[C@@H]3C[C@H]4CC[C@@H](C3)N4[C@@H]3CCOC3)ncc([C@H]3CC[C@H](O)CC3)c2n1 [Compound 415] | ≤ 100 nM | 100 to 1000 nM
28 | C[C@@H](CC(F)(F)F)Nc1ncc2c(O[C@@H]3C[C@H]4CC[C@@H](C3)N4C[C@@H]3CCOC3)ncc([C@H]3CC[C@H](O)CC3)c2n1 [Compound 416] | ≤ 100 nM | ≤ 100 nM
29 | CO[C@H]1C[C@@H]1Nc1ncc2c(O[C@H]3C[C@@H](O)C3)ncc([C@H]3CC[C@H](O)CC3)c2n1 [Compound 417] | ≤ 100 nM | 100 to 1000 nM
30 | C[C@@H](CC(F)(F)F)Nc1ncc2c(OC3CC(C)(C)N(C[C@@H]4CCCO4)C(C)(C)C3)ncc([C@H]3CC[C@H](O)CC3)c2n1 [Compound 418] | ≤ 100 nM | ≤ 100 nM
31 | COC[C@H](C)Nc1ncc2c(O[C@H]3C[C@H](C(=O)N4CCN(C)CC4)C3)ncc([C@H]3CC[C@H](O)CC3)c2n1 [Compound 419] | 100 to 1000 nM | 1000 to 10000 nM
32 | C[C@@H](CC(F)(F)F)Nc1ncc2c(O[C@H]3C[C@H](CN4CCOCC4)C3)ncc([C@H]3CC[C@H](O)CC3)c2n1 [Compound 420] | ≤ 100 nM | 100 to 1000 nM
33 | C[C@@H](CC(F)(F)F)Nc1ncc2c(O[C@@H]3C[C@H]4CC[C@@H](C3)N4C[C@@H]3CCCO3)ncc([C@H]3CC[C@H](O)CC3)c2n1 [Compound 421] | ≤ 100 nM | ≤ 100 nM
34 | C[C@@H](CC(F)(F)F)Nc1ncc2c(O[C@H]3C[C@H](N4CCOCC4)C3)ncc([C@H]3CC[C@H](O)CC3)c2n1 [Compound 422] | ≤ 100 nM | 100 to 1000 nM
35 | C[C@@H](CC(F)(F)F)Nc1ncc2c(O[C@H]3C[C@@H](O)C3)ncc([C@H]3CC[C@](C)(O)CC3)c2n1 [Compound 423] | ≤ 100 nM | 100 to 1000 nM
36 | C[C@@H](CC(F)(F)F)Nc1ncc2c(O[C@H]3C[C@@H](O)C3)ncc([C@H]3CC[C@@](C)(O)CC3)c2n1 [Compound 424] | ≤ 100 nM | 100 to 1000 nM
37 | COC[C@H](C)Nc1ncc2c(O[C@H]3C[C@@H](O)C3)ncc(-c3ccnnc3)c2n1 [Compound 425] | 1000 to 10000 nM | 1000 to 10000 nM
38 | COC[C@H](C)Nc1ncc2c(O[C@H]3C[C@@H](O)C3)ncc([C@H]3CC[C@](C)(O)CC3)c2n1 [Compound 426] | 100 to 1000 nM | 1000 to 10000 nM
39 | COC[C@H](C)Nc1ncc2c(O[C@H]3C[C@@H](O)C3)ncc([C@H]3CC[C@@](C)(O)CC3)c2n1 [Compound 427] | 100 to 1000 nM | > 10000 nM
